Test results taken from publication PMC8159961, “Exploring protein hotspots by optimized fragment pharmacophores” (Nature Communications, 2021).
Like-named read-outs stand apart in the source and are kept apart here.

Experiments:
human 5-HT1A receptor = target: T1, human 5-HT1A receptor (Homo sapiens, UniProt P08908); assay: GPCR radioligand binding assay, [3H]-8-OH-DPAT displacement, HEK293 membranes
T1 construct: expressed in transfected cells
T1 sequence (P08908 1-422): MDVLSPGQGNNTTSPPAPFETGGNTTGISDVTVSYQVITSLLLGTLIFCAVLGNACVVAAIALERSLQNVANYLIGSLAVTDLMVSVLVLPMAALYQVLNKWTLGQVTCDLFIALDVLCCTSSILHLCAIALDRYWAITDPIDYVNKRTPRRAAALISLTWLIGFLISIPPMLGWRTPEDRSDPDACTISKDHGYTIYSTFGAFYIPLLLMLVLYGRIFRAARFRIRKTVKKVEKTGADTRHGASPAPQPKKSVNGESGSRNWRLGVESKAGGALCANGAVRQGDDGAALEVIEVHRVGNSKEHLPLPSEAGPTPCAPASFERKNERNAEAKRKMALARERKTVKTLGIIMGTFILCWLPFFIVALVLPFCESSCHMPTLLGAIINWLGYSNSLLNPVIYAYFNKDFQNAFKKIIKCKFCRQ

human 5-HT6 receptor = target: T2, human 5-HT6 receptor (Homo sapiens, UniProt P50406); assay: GPCR radioligand binding assay, [3H]-LSD displacement, HEK293 membranes
T2 construct: expressed in transfected cells
T2 sequence (P50406 whole entry): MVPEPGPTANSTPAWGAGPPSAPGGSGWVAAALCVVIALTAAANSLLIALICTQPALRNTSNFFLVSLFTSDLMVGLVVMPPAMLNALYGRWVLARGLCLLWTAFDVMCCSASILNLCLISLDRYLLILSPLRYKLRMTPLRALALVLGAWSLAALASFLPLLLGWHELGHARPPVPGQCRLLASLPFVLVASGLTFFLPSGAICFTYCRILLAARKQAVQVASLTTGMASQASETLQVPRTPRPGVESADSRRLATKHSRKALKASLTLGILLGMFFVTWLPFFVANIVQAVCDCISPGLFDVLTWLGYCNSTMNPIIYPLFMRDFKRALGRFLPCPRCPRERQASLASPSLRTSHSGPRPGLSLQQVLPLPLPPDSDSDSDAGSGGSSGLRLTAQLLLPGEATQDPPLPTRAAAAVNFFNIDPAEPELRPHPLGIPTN

human 5-HT7b receptor = target: T3, human 5-HT7b receptor (Homo sapiens, UniProt P34969); assay: GPCR radioligand binding assay, [3H]-5-CT displacement, HEK293 membranes
T3 construct: expressed in transfected cells
T3 sequence (P34969 1-432): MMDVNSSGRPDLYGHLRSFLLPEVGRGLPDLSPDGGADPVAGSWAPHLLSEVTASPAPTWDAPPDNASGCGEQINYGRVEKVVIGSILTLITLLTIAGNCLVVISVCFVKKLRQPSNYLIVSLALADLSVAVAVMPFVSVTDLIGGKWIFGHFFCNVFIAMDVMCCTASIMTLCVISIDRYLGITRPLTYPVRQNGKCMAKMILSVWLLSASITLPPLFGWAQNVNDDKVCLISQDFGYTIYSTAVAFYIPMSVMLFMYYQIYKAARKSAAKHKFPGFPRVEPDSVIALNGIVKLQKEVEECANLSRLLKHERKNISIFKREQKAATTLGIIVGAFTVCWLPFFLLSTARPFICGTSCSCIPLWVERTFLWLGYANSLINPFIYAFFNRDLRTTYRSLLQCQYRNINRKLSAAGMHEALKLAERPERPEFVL

bovine factor Xa = target: T4, bovine factor Xa (Bos taurus, UniProt P00743); assay: Protease inhibitory assay, chromogenic substrate S-2222; assay type: biochemical; settings: plate layout, label = plate position; Cheng-Prusoff, Km 164 µM; read-out: Factor Xa Ki
T4 construct: bovine factor Xa, Chromogenix, 2 nkat/mL; purchased Chromogenix
T4 sequence (P00743 234-492 limits assumed): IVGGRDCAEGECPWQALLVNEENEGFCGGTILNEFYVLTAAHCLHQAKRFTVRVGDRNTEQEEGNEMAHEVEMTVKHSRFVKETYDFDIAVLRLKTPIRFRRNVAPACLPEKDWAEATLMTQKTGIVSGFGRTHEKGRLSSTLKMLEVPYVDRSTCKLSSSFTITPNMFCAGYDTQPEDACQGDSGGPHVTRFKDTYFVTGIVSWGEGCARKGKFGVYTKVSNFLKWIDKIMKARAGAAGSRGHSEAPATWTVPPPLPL
T4 sequence (P00743 41-180 partner limits assumed): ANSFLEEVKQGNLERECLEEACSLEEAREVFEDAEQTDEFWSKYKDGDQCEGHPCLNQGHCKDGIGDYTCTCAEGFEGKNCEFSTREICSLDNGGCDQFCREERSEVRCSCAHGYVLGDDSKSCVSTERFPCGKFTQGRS

[1] = 10 µM, read-out: 5-HT1A % Inhibition by plate position
[2] = 5-HT1A, average of exp_1 and exp_2, read-out: %inh 5-HT1A average
[3] = 5-HT1A, average, values below 0 and above 100% were set as 0 and 100, read-out: %inh 5-HT1A corrected*
[4] = 5-HT1A, replicate exp_1, read-out: %inh 5-HT1A exp_1
[5] = 5-HT1A, replicate exp_2, read-out: %inh 5-HT1A exp_2
[6] = 10 µM, read-out: 5-HT6 % Inhibition by plate position
[7] = 5-HT6, average of exp_1 and exp_2, read-out: %inh 5-HT6 average
[8] = 5-HT6, average, values below 0 and above 100% were set as 0 and 100, read-out: %inh 5-HT6 corrected*
[9] = 5-HT6, replicate exp_1, read-out: %inh 5-HT6 exp_1
[10] = 5-HT6, replicate exp_2, read-out: %inh 5-HT6 exp_2
[11] = 10 µM, read-out: 5-HT7 % Inhibition by plate position
[12] = 5-HT7, average of exp_1 and exp_2, read-out: %inh 5-HT7 average
[13] = 5-HT7, average, values below 0 and above 100% were set as 0 and 100, read-out: %inh 5-HT7 corrected*
[14] = 5-HT7, replicate exp_1, read-out: %inh 5-HT7 exp_1
[15] = 5-HT7, replicate exp_2, read-out: %inh 5-HT7 exp_2
[16] = 5-HT1A, average of exp_1 and exp_2
[17] = 5-HT1A, average, values below 0 and above 100% were set as 0 and 100
[18] = 5-HT6, average of exp_1 and exp_2
[19] = 5-HT6, average, values below 0 and above 100% were set as 0 and 100
[20] = 5-HT7, average of exp_1 and exp_2

Row | SMILES | %inh 5-HT1A average (human 5-HT1A receptor; [16]) | %inh 5-HT1A corrected* (human 5-HT1A receptor; [17]) | %inh 5-HT1A exp_1 (human 5-HT1A receptor; 5-HT1A, replicate exp_1) | %inh 5-HT1A exp_2 (human 5-HT1A receptor; 5-HT1A, replicate exp_2) | 5-HT6 % Inhibition by plate position (human 5-HT6 receptor; 10 µM) | %inh 5-HT6 average (human 5-HT6 receptor; [18]) | %inh 5-HT6 corrected* (human 5-HT6 receptor; [19]) | %inh 5-HT6 exp_1 (human 5-HT6 receptor; 5-HT6, replicate exp_1) | %inh 5-HT6 exp_2 (human 5-HT6 receptor; 5-HT6, replicate exp_2) | 5-HT7 % Inhibition by plate position (human 5-HT7b receptor; 10 µM) | %inh 5-HT7 average (human 5-HT7b receptor; [20]) | %inh 5-HT7 exp_1 (human 5-HT7b receptor; 5-HT7, replicate exp_1) | %inh 5-HT7 exp_2 (human 5-HT7b receptor; 5-HT7, replicate exp_2) | further results
1 | Cn1c(N)nc2ccccc21 [A6] |  |  |  |  |  |  |  |  |  |  |  |  |  | inhibition at 10 µM (human 5-HT1A receptor; [1]): 0%; inhibition at 10 µM (human 5-HT1A receptor; [2]): -7%; inhibition at 10 µM (human 5-HT1A receptor; [3]): 0%; inhibition at 10 µM (human 5-HT1A receptor; [4]): -18%; inhibition at 10 µM (human 5-HT1A receptor; [5]): 3%; inhibition at 10 µM (human 5-HT6 receptor; [6]): 25%; inhibition at 10 µM (human 5-HT6 receptor; [7]): 25%; inhibition at 10 µM (human 5-HT6 receptor; [8]): 25%; inhibition at 10 µM (human 5-HT6 receptor; [9]): 22%; inhibition at 10 µM (human 5-HT6 receptor; [10]): 29%; inhibition at 10 µM (human 5-HT7b receptor; [11]): 0%; inhibition at 10 µM (human 5-HT7b receptor; [12]): -10%; inhibition at 10 µM (human 5-HT7b receptor; [13]): 0%; inhibition at 10 µM (human 5-HT7b receptor; [14]): -3%; inhibition at 10 µM (human 5-HT7b receptor; [15]): -18%; Ki (bovine factor Xa): 277 µM
2 | Oc1ccccc1N1CCCCC1 [A12] |  |  |  |  |  |  |  |  |  |  |  |  |  | inhibition at 10 µM (human 5-HT1A receptor; [1]): 0%; inhibition at 10 µM (human 5-HT1A receptor; [2]): -10%; inhibition at 10 µM (human 5-HT1A receptor; [3]): 0%; inhibition at 10 µM (human 5-HT1A receptor; [4]): 3.37%; inhibition at 10 µM (human 5-HT1A receptor; [5]): -23%; inhibition at 10 µM (human 5-HT6 receptor; [6]): 55%; inhibition at 10 µM (human 5-HT6 receptor; [7]): 55%; inhibition at 10 µM (human 5-HT6 receptor; [8]): 55%; inhibition at 10 µM (human 5-HT6 receptor; [9]): 69%; inhibition at 10 µM (human 5-HT6 receptor; [10]): 42%; inhibition at 10 µM (human 5-HT7b receptor; [11]): 0%; inhibition at 10 µM (human 5-HT7b receptor; [12]): -0.0781%; inhibition at 10 µM (human 5-HT7b receptor; [13]): 0%; inhibition at 10 µM (human 5-HT7b receptor; [14]): -4.73%; inhibition at 10 µM (human 5-HT7b receptor; [15]): 4.58%; Ki (bovine factor Xa): 611 µM
3 | CCc1nccn1CC(=O)O [G11] | 8.43% | 8.43% | 3.26% | 14% | 0% | -2% | 0% | -9% | 5% | 0% | -3.32% | -14% | 8% | 
4 | O=C(O)c1ccc(CN2CCOCC2)cc1 [H1] | 5% | 5% | 11% | -0.56% | 44% | 44% | 44% | 48% | 41% | 17% |  | 11% | 23% | 
5 | O=C(O)CC1CCC(=O)N1 (stereo not shown) [H2] | -0.447% |  | -9% | 8.47% | 16% | 16% | 16% | 18% | 15% | 7% |  | 4.76% | 9% | 5-HT1A % Inhibition by plate position (human 5-HT1A receptor; 10 µM): 0%
6 | FC1(F)CNCC(F)(F)O1 [H3] | -7% |  | 9% | -23% | 36% | 36% | 36% | 40% | 31% | 0% | -7% | -4% | -10% | 5-HT1A % Inhibition by plate position (human 5-HT1A receptor; 10 µM): 0%
7 | Fc1ccc2c(C3CCNCC3)c[nH]c2c1 [H4] | 81% | 81% | 87% | 75% | 90% | 90% | 90% | 81% | 98% | 78% |  | 78% | 78% | 
8 | Oc1ccc(-n2cncn2)cc1 [H5] | -1.29% |  | -9% | 6% | 36% | 36% | 36% | 39% | 32% | 25% |  | 29% | 21% | 5-HT1A % Inhibition by plate position (human 5-HT1A receptor; 10 µM): 0%
9 | Cn1nc(C(F)(F)F)cc1O [H6] | 21% | 21% | 21% | 21% | 0% | -24% | 0% | -16% | -31% | 9% |  | 4% | 14% | 
10 | O=C1CCC(=O)N(c2ccccc2)N1 [H7] | 6% | 6% | 7% | 5.53% | 22% | 22% | 22% | 24% | 20% | 24% |  | 27% | 21% | 
11 | O=C1CC(CSc2ccc(Cl)cc2)=NN1 [H8] | -0.353% |  | -4% | 3.38% | 12% | 12% | 12% | 9% | 14% | 0% | -7% | -1% | -14% | 5-HT1A % Inhibition by plate position (human 5-HT1A receptor; 10 µM): 0%
12 | O=C(c1ccccc1)N1CCC(CO)CC1 [H9] | 11% | 11% | 15% | 7% | 32% | 32% | 32% | 29% | 36% | 12% |  | 11% | 13% | 
13 | O=C1CSC(Nc2ccc(F)cc2)=N1 [H10] | 12% | 12% | 10% | 15% | 36% | 36% | 36% | 37% | 35% | 0% | -3.55% | 3.25% | -10% | 
14 | Cc1ccc(CCNc2ccccc2)cn1 [H11] | 5% | 5% | 11% | -0.501% | 0% | -0.844% | 0% | 7% | -9% | 0% | -0.222% | -13% | 12% | 
